Test results from PubChem BioAssay AID2060509 (Molecular Pharmacology Branch, DTP, NCI, 2025).

System: 485176-168-R4-J1-PDC spheroids with HUVEC/MSC, viability
Experiment: Anticancer human tumor 485176-168-R4-J1-PDC patient-derived pancreatic adenocarcinoma cell line growth inhibition [GQUAD]
Details: for IC50: curve of first compound; for viability, T/C: stronger effect = lower value
Summary of the method: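 Tumor cells were grown as complex spheroids with HUVEC endothelial cells and mesenchymal stem cells as stroma. G-quadruplex stabilizers were combined with targeted agents over half-log dilutions from near the clinical Cmax, or from 10 microM.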
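Further: spheroids exposed to compounds for seven days before readout.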
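Wherever viability, T/C is given: percent viability relative to DMSO vehicle control wells as 100%.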

For `C=CC(=O)N1CCN(c2nc(=O)n(-c3c(C)ccnc3C(C)C)c3nc(-c4c(O)cccc4F)c(F)cc23)C(C)C1` (configuration not stated) + CN(C)c1ccc(Nc2c3ccc(NC(=O)CCN4CCCC4)cc3nc3cc(NC(=O)CCN4CCCC4)ccc23)cc1, the IC50 (second compound 0.0316 µM) was > 10 µM, the IC50 (second compound 0.1 µM) was > 10 µM and the IC50 (second compound 0.316 µM) was > 10 µM. The IC50 (second compound 1 µM) was > 10 µM, the IC50 (second compound 3.16 µM) was > 10 µM and the IC50 (second compound 10 µM) was > 10 µM. For the same molecule, the viability, T/C (second compound 0.0316 µM, first compound 0.0316 µM) was 111%, the viability, T/C (second compound 0.0316 µM, first compound 0.1 µM) was 90.2% and the viability, T/C (second compound 0.0316 µM, first compound 0.316 µM) was 102%. It also gave a viability, T/C (second compound 0.0316 µM, first compound 1 µM) of 98.1%, a viability, T/C (second compound 0.0316 µM, first compound 3.16 µM) of 120% and a viability, T/C (second compound 0.0316 µM, first compound 10 µM) of 112%. For the same molecule, the viability, T/C (second compound 0.1 µM, first compound 0.0316 µM) was 88.5%, the viability, T/C (second compound 0.1 µM, first compound 0.1 µM) was 98.3% and the viability, T/C (second compound 0.1 µM, first compound 0.316 µM) was 110%. The viability, T/C (second compound 0.1 µM, first compound 1 µM) was 99.5%, the viability, T/C (second compound 0.1 µM, first compound 3.16 µM) was 114% and the viability, T/C (second compound 0.1 µM, first compound 10 µM) was 96.6%. The viability, T/C (second compound 0.316 µM, first compound 0.0316 µM) was 90.5%, the viability, T/C (second compound 0.316 µM, first compound 0.1 µM) was 95.7% and the viability, T/C (second compound 0.316 µM, first compound 0.316 µM) was 96.2%. It also gave a viability, T/C (second compound 0.316 µM, first compound 1 µM) of 101%, a viability, T/C (second compound 0.316 µM, first compound 3.16 µM) of 119% and a viability, T/C (second compound 0.316 µM, first compound 10 µM) of 120%. The viability, T/C (second compound 1 µM, first compound 0.0316 µM) was 128%, the viability, T/C (second compound 1 µM, first compound 0.1 µM) was 110% and the viability, T/C (second compound 1 µM, first compound 0.316 µM) was 94.8%. For the same molecule, the viability, T/C (second compound 1 µM, first compound 1 µM) was 108%, the viability, T/C (second compound 1 µM, first compound 3.16 µM) was 125% and the viability, T/C (second compound 1 µM, first compound 10 µM) was 98.6%. It also gave a viability, T/C (second compound 3.16 µM, first compound 0.0316 µM) of 108%, a viability, T/C (second compound 3.16 µM, first compound 0.1 µM) of 95.6% and a viability, T/C (second compound 3.16 µM, first compound 0.316 µM) of 90.5%. It also gave a viability, T/C (second compound 3.16 µM, first compound 1 µM) of 107%, a viability, T/C (second compound 3.16 µM, first compound 3.16 µM) of 114% and a viability, T/C (second compound 3.16 µM, first compound 10 µM) of 108%. For the same molecule, the viability, T/C (second compound 10 µM, first compound 0.0316 µM) was 86.2%, the viability, T/C (second compound 10 µM, first compound 0.1 µM) was 104% and the viability, T/C (second compound 10 µM, first compound 0.316 µM) was 86.6%. For the same molecule, the viability, T/C (second compound 10 µM, first compound 1 µM) was 91.1%, the viability, T/C (second compound 10 µM, first compound 3.16 µM) was 88.2% and the viability, T/C (second compound 10 µM, first compound 10 µM) was 73.1%.
